{
  "source": "paper PMC7603405",
  "about": "(Nature, 2020)",
  "key": {"[1]": {"system": "SARS-CoV-2 USA-WA1/2020", "assay_type": "cell-based", "details": "2.5 and 1 μM, Vero E6, Table S3"}, "[2]": {"system": "SARS-CoV-2 HKU-001a", "assay_type": "cell-based", "details": "positive control of the screen"}, "[3]": {"system": "SARS-CoV-2 USA-WA1/2020", "test": "Time-of-addition assay in Vero E6 cells", "assay_type": "cell-based", "details": "2.5 μM"}, "[4]": {"system": "SARS-CoV-2 USA-WA1/2020", "assay_type": "cell-based"}, "[5]": {"details": "cited from earlier work"}, "[6]": {"details": "read-out: Cmax; humans; cited from earlier work"}, "[7]": {"system": "SARS-CoV-2 HKU-001a", "assay_type": "cell-based"}, "[8]": {"system": "SARS-CoV-2 USA-WA1/2020", "test": "Drug synergy quantification with remdesivir in Vero E6 cells", "assay_type": "cell-based"}, "[9]": {"biological_target": "SARS-CoV-2 papain-like protease (PLpro) (Severe acute respiratory syndrome coronavirus 2, UniProt P0DTD1)", "assay_type": "biochemical", "details": "1 to 50 μM"}, "[10]": {"biological_target": "SARS-CoV-2 main protease (Mpro) (Severe acute respiratory syndrome coronavirus 2, UniProt P0DTD1)", "assay_type": "biochemical", "details": "1 to 50 μM"}, "[11]": {"system": "COVID-19", "details": "COVID-19 patients, NIAID trial; cited from earlier work"}, "[12]": {"system": "SARS-CoV-2", "assay_type": "cell-based", "details": "5 μM; reversed by RAR antagonist Ro41-5253 5 μM"}},
  "note": "“Also recorded” adds a separate entry of the source. Peptide text beside a SMILES is read from it. * marks the point of attachment. Cbz = O=C(OCc1ccccc1)*; CHN2 = [N-]=[N+]=C*",
  "data": [
    {"compound": "COc1cc(F)cc2c1-c1ccc(F)cc1C21NC(=O)NC1=O", "note": "(stereo not drawn) [AL 3152]", "values": [
      {"measurement": "validation as inhibitor of SARS-CoV-2 replication", "setting": "[1]", "result": "validated"}
    ]},
    {"compound": "Cc1cccc(/C=N/Nc2cc(N3CCOCC3)n3nc(-c4ccncc4)cc3n2)c1", "note": "[APY0201]", "values": [
      {"measurement": "antiviral activity in CPE assay", "setting": "[2]", "result": "confirmed the potential antiviral activity"}
    ]},
    {"compound": "CCN(CC)CCCNc1ccnc2cc(Cl)ccc12", "note": "[AQ-13]", "values": [
      {"measurement": "validation as inhibitor of SARS-CoV-2 replication", "setting": "[1]", "result": "validated"}
    ]},
    {"compound": "Cc1cccc(/C=N/Nc2cc(N3CCOCC3)nc(OCCc3ccccn3)n2)c1", "note": "[Apilimod]", "values": [
      {"measurement": "step of viral life cycle inhibited, time of addition", "setting": "[3]", "result": "inhibit viral replication during entry"},
      {"measurement": "reduction of number of infected cells", "setting": "[4]", "result": 85, "unit": "%"},
      {"measurement": "doses showing a desirable safety profile in humans", "setting": "[5]; well tolerated", "result": "≤ 125", "unit": "mg BID"},
      {"measurement": "Cmax", "setting": "[6]", "result": 265, "unit": "nM"},
      {"measurement": "antiviral activity in ex vivo lung culture", "setting": "[7]", "result": "potently antagonizes viral replication"}
    ]},
    {"compound": "COc1ccc(CCN2CCC(Nc3nc4ccccc4n3Cc3ccc(F)cc3)CC2)cc1", "note": "[Astemizole]", "values": [
      {"measurement": "validation as inhibitor of SARS-CoV-2 replication", "setting": "[1]", "result": "confirmed to inhibit SARS-CoV-2 replication"}
    ]},
    {"compound": "COc1ccc2cc1Oc1ccc(cc1)C[C@H]1c3cc(c(OC)cc3CCN1C)Oc1c(OC)c(OC)cc3c1[C@H](C2)N(C)CC3", "note": "[Hanfangchin A, Tetrandrine]", "values": [
      {"measurement": "synergy with remdesivir", "setting": "[8]", "result": "notable levels of synergy with remdesivir"},
      {"measurement": "validation as inhibitor of SARS-CoV-2 replication", "setting": "[1]", "result": "validated"}
    ]},
    {"compound": "CC(/C=C/C=C(\\C)c1cc(C(C)(C)C)cc(C(C)(C)C)c1)=C\\C(=O)O", "note": "[LGD-1550]", "values": [
      {"measurement": "validation as inhibitor of SARS-CoV-2 replication", "setting": "[1]", "result": "validated"}
    ]},
    {"compound": "C[C@@H]1CS/C(=N\\NC(=O)C(=O)[C@H](NC(=O)C2CCCCCC2)C2CCOCC2)N1C", "note": "[ONO 5334]", "values": [
      {"measurement": "reduction of number of infected cells", "setting": "[4]", "result": 72, "unit": "%"},
      {"measurement": "inhibitory activity upon PLpro", "setting": "[9]", "result": "lack potent inhibitory activity"},
      {"measurement": "tolerability in phase II clinical trials", "setting": "[5]; treatment of osteoporosis", "result": "well tolerated"},
      {"measurement": "inhibitory activity upon 3CLpro / Mpro", "setting": "[10]", "result": "lack potent inhibitory activity"}
    ]},
    {"compound": "CCC(CC)COC(=O)[C@H](C)N[P@](=O)(OC[C@H]1O[C@@](C#N)(c2ccc3c(N)ncnn23)[C@H](O)[C@@H]1O)Oc1ccccc1", "note": "[Remdesivir]", "values": [
      {"measurement": "improved time to recovery in treated patients", "setting": "[11]", "result": 47, "unit": "%"}
    ]},
    {"compound": "CC[C@H](NC(=O)[C@H](CS(=O)(=O)CC1CC1)N[C@@H](c1ccc(F)cc1)C(F)(F)F)C(=O)C(=O)NC1CC1", "note": "[VBY-825]", "values": [
      {"measurement": "inhibitory activity upon PLpro", "setting": "[9]", "result": "lack potent inhibitory activity"},
      {"measurement": "inhibitory activity upon 3CLpro / Mpro", "setting": "[10]", "result": "lack potent inhibitory activity"}
    ]},
    {"compound": "CC(C)CC(NC(=O)OCc1ccccc1)C(=O)NC(C(=O)NCC(=O)C=[N+]=[N-])C(C)C", "note": "(stereo not drawn) [Z LVG CHN2] (Cbz-Leu-Val-Gly-CHN2; configuration not given here)", "values": [
      {"measurement": "inhibitory activity upon PLpro", "setting": "[9]", "result": "lack potent inhibitory activity"},
      {"measurement": "inhibitory activity upon 3CLpro / Mpro", "setting": "[10]", "result": "lack potent inhibitory activity"}
    ]},
    {"compound": "CCOC(=O)c1ncc2[nH]c3cccc(OC(C)C)c3c2c1C", "note": "[ZK-93426]", "values": [
      {"measurement": "validation as inhibitor of SARS-CoV-2 replication", "setting": "[1]", "result": "validated"}
    ]},
    {"compound": "COc1cc(C)c(/C=C/C(C)=C/C=C/C(C)=C/C(=O)O)c(C)c1C", "note": "[acitretin]", "values": [
      {"measurement": "validation as inhibitor of SARS-CoV-2 replication", "setting": "[1]", "result": "validated; also recorded: confirmed to inhibit SARS-CoV-2 replication"}
    ]},
    {"compound": "CCN(CC)CCCC(C)Nc1ccnc2cc(Cl)ccc12", "note": "(stereo not drawn) [chloroquine]", "values": [
      {"measurement": "validation as inhibitor of SARS-CoV-2 replication", "setting": "[1]", "result": "confirmed to inhibit SARS-CoV-2 replication"}
    ]},
    {"compound": "CC(C)CCC(=O)CC1c2ccccc2C(=O)N1c1ccc2ccc(Cl)nc2n1", "note": "(stereo not drawn) [pagoclone]", "values": [
      {"measurement": "validation as inhibitor of SARS-CoV-2 replication", "setting": "[1]", "result": "validated"}
    ]},
    {"compound": "CC1(C)CCC(C)(C)c2cc(NC(=O)c3ccc(C(=O)O)cc3)ccc21", "note": "[tamibarotene]", "values": [
      {"measurement": "validation as inhibitor of SARS-CoV-2 replication", "setting": "[1]", "result": "validated"}
    ]},
    {"compound": "CCOC(=O)c1ccc(C#Cc2ccc3c(c2)C(C)(C)CCS3)nc1", "note": "[tazarotene]", "values": [
      {"measurement": "effect on viral replication, chemical epistasis", "setting": "[12]", "result": "inhibition of viral replication"},
      {"measurement": "validation as inhibitor of SARS-CoV-2 replication", "setting": "[1]", "result": "validated"}
    ]},
    {"compound": "CC1=C(/C=C/C(C)=C/C=C/C(C)=C/C(=O)O)C(C)(C)CCC1", "note": "[tretinoin]", "values": [
      {"measurement": "validation as inhibitor of SARS-CoV-2 replication", "setting": "[1]", "result": "validated"}
    ]},
    {"compound": "CCN(C(C)=O)c1cccc(-c2ccnc3c(C#N)cnn23)c1", "note": "[zaleplon GR]", "values": [
      {"measurement": "validation as inhibitor of SARS-CoV-2 replication", "setting": "[1]", "result": "validated"}
    ]},
    {"compound": "MDL 28170", "values": [
      {"measurement": "reduction of number of infected cells", "setting": "[4]", "result": 65, "unit": "%"},
      {"measurement": "inhibitory activity upon PLpro", "setting": "[9]", "result": "lack potent inhibitory activity"},
      {"measurement": "inhibitory activity upon 3CLpro / Mpro", "setting": "[10]", "result": "lack potent inhibitory activity"}
    ]}
  ]
}
